Data published in patent US12187721B2, “Protein tyrosine phosphatase inhibitors” (Array BioPharma Inc., priority 2018, dated 2025).
pIC50: −log10 of the molar value.

What follows are molecules tested against T1, full-length SHP2 (His6-tagged SHP2(2-527)) (Homo sapiens, UniProt Q06124) (assay: SHP2 Enzymatic Assay (fluorescence intensity kinetic assay, DiFMUP hydrolysis)).
T1 construct: His6-tagged SHP2(2-527); His6; made in house; host or cells: E. coli
Type: biochemical
In short: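 1 nM His6-SHP2(2-527), activated by 1 μM bis-phosphopeptide, hydrolysed 50 μM DiFMUP in 25 mM HEPES pH 7.4 with 1 mM DTT, 50 mM KCl and 2% DMSO. DiFMU fluorescence (Ex 355/Em 460 nm) was read kinetically for 15 min at ambient temperature.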

T1 sequence (Q06124 2-527): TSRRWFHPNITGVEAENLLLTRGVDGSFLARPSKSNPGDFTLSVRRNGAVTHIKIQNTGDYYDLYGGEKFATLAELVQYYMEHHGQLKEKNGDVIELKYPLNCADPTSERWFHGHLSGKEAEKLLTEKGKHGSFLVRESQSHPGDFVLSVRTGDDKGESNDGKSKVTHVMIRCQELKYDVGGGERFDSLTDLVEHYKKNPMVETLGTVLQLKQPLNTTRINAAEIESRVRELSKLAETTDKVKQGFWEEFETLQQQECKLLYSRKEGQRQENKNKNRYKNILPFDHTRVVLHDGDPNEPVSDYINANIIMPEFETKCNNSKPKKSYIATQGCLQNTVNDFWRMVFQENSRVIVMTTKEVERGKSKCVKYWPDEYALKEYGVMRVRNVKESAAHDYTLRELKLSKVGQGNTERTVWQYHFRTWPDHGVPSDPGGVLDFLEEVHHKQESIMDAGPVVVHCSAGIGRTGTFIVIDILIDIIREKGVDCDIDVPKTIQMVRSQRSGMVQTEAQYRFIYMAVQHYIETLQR

| SMILES | pIC50 |
| --- | --- |
| C[C@@H]1OCC2(CCN(c3cnc4nc(Sc5ccc(N)nc5C(F)(F)F)ccc4n3)CC2)[C@@H]1N [Example 176, (3S,4S)-8-(6-((6-amino-2-(trifluoromethyl)pyridin-3-yl)thio)pyrido[2,3-b]pyrazin-2-yl)-3-methyl-2-oxa-8-azaspiro[4.5]decan-4-amine] | 6.96 |
| C[C@@H]1OCC2(CCN(c3cnc4nc(Sc5ccnc(Cl)c5Cl)ccc4n3)CC2)[C@@H]1N [Example 177, (3S,4S)-8-(6-((2,3-dichloropyridin-4-yl)thio)pyrido[2,3-b]pyrazin-2-yl)-3-methyl-2-oxa-8-azaspiro[4.5]decan-4-amine] | 6.66 |
| Cc1ccc2c(c1)[C@H](N)C1(CCN(c3cnc4nc(Sc5ccnc(N)c5Cl)ccc4n3)CC1)C2 [Example 179, (R)-1′-(6-((2-amino-3-chloropyridin-4-yl)thio)pyrido[2,3-b]pyrazin-2-yl)-6-methyl-1,3-dihydrospiro[indene-2,4′-piperidin]-1-amine] | 7.10 |
| Nc1nccc(Sc2ccc3nc(N4CCC(N)(Cc5ccccn5)CC4)cnc3n2)c1Cl [Example 180, 4-((2-(4-amino-4-(pyridin-2-ylmethyl)piperidin-1-yl)pyrido[2,3-b]pyrazin-6-yl)thio)-3-chloropyridin-2-amine] | 6.56 |
| Nc1nccc(Sc2ccc3nc(N4CCC(N)(Cc5ccccc5)CC4)cnc3n2)c1Cl [Example 181, 4-((2-(4-amino-4-benzylpiperidin-1-yl)pyrido[2,3-b]pyrazin-6-yl)thio)-3-chloropyridin-2-amine] | 7.12 |
| COCCC1(N)CCN(c2cnc3nc(Sc4ccnc(N)c4Cl)ccc3n2)CC1 [Example 182, 4-((2-(4-amino-4-(2-methoxyethyl)piperidin-1-yl)pyrido[2,3-b]pyrazin-6-yl)thio)-3-chloropyridin-2-amine] | 7.10 |
| COCCNc1nccc(Sc2ccc3nc(N4CCC5(CC4)CO[C@@H](C)[C@H]5N)cnc3n2)c1Cl [Example 183, (3S,4S)-8-(6-((3-chloro-2-((2-methoxyethyl)amino)pyridin-4-yl)thio)pyrido[2,3-b]pyrazin-2-yl)-3-methyl-2-oxa-8-azaspiro[4.5]decan-4-amine] | 6.57 |
| C[C@@H]1OCC2(CCN(c3cnc4nc(Sc5ccnc(NC6CC6)c5Cl)ccc4n3)CC2)[C@@H]1N [Example 184, (3S,4S)-8-(6-((3-chloro-2-(cyclopropylamino)pyridin-4-yl)thio)pyrido[2,3-b]pyrazin-2-yl)-3-methyl-2-oxa-8-azaspiro[4.5]decan-4-amine] | 6.38 |
| C[C@@H]1OCC2(CCN(c3cnc4nc(Sc5ccncc5F)ccc4n3)CC2)[C@@H]1N [Example 186, (3S,4S)-8-(6-((3-fluoropyridin-4-yl)thio)pyrido[2,3-b]pyrazin-2-yl)-3-methyl-2-oxa-8-azaspiro[4.5]decan-4-amine] | 5.64 |
| C[C@@H]1OCC2(CCN(c3cnc4nc(Sc5ccncc5Cl)ccc4n3)CC2)[C@@H]1N [Example 187, (3S,4S)-8-(6-((3-chloropyridin-4-yl)thio)pyrido[2,3-b]pyrazin-2-yl)-3-methyl-2-oxa-8-azaspiro[4.5]decan-4-amine] | 6.58 |
| C[C@@H]1OCC2(CCN(c3cnc4nc(Sc5ccncc5C(F)(F)F)ccc4n3)CC2)[C@@H]1N [Example 188, (3S,4S)-3-methyl-8-(6-((3-(trifluoromethyl)pyridin-4-yl)thio)pyrido[2,3-b]pyrazin-2-yl)-2-oxa-8-azaspiro[4.5]decan-4-amine] | 6.82 |
| C[C@@H]1OCC2(CCN(c3cnc4nc(Sc5ccnc(C(F)(F)F)c5)ccc4n3)CC2)[C@@H]1N [Example 190, (3S,4S)-3-methyl-8-(6-((2-(trifluoromethyl)pyridin-4-yl)thio)pyrido[2,3-b]pyrazin-2-yl)-2-oxa-8-azaspiro[4.5]decan-4-amine] | 5.44 |
| C[C@@H]1OCC2(CCN(c3cnc4nc(Sc5ccnc6c5ccn6C)ccc4n3)CC2)[C@@H]1N [Example 191, (3S,4S)-3-methyl-8-(6-((1-methyl-1H-pyrrolo[2,3-b]pyridin-4-yl)thio)pyrido[2,3-b]pyrazin-2-yl)-2-oxa-8-azaspiro[4.5]decan-4-amine] | 6.87 |
| C[C@@H]1OCC2(CCN(c3cnc4nc(Sc5c(Cl)cnc6[nH]ccc56)ccc4n3)CC2)[C@@H]1N [Example 192, (3S,4S)-8-(6-((5-chloro-1H-pyrrolo[2,3-b]pyridin-4-yl)thio)pyrido[2,3-b]pyrazin-2-yl)-3-methyl-2-oxa-8-azaspiro[4.5]decan-4-amine] | 7.35 |
| C[C@@H]1OCC2(CCN(c3cnc4nc(Sc5c(C(F)(F)F)cnc6[nH]ccc56)ccc4n3)CC2)[C@@H]1N [Example 193, (3S,4S)-3-methyl-8-(6-((5-(trifluoromethyl)-1H-pyrrolo[2,3-b]pyridin-4-yl)thio)pyrido[2,3-b]pyrazin-2-yl)-2-oxa-8-azaspiro[4.5]decan-4-amine] | 6.86 |
| COCCNc1nccc(Sc2ccc3nc(N4CCC(C)(N)CC4)cnc3n2)c1Cl [Example 194, 4-((2-(4-amino-4-methylpiperidin-1-yl)pyrido[2,3-b]pyrazin-6-yl)thio)-3-chloro-N-(2-methoxyethyl)pyridin-2-amine] | 6.62 |
| COCCCNc1nccc(Sc2ccc3nc(N4CCC(C)(N)CC4)cnc3n2)c1Cl [Example 195, 4-((2-(4-amino-4-methylpiperidin-1-yl)pyrido[2,3-b]pyrazin-6-yl)thio)-3-chloro-N-(3-methoxypropyl)pyridin-2-amine] | 6.30 |

| SMILES | pIC50 |
| --- | --- |
| CC1(N)CCN(c2cnc3nc(Sc4ccnc5c4CCN5)ccc3n2)CC1 [Example 196, 1-(6-((2,3-dihydro-1H-pyrrolo[2,3-b]pyridin-4-yl)thio)pyrido[2,3-b]pyrazin-2-yl)-4-methylpiperidin-4-amine] | 6.25 |
| CC1(N)CCN(c2cnc3nc(Sc4ccnc5ncccc45)ccc3n2)CC1 [Example 197, 1-(6-((1,8-naphthyridin-4-yl)thio)pyrido[2,3-b]pyrazin-2-yl)-4-methylpiperidin-4-amine] | 5.82 |
| Nc1nccc(Sc2ccc3nc(N4CCC(O)(CO)CC4)cnc3n2)c1Cl [Example 198, 1-(6-((2-amino-3-chloropyridin-4-yl)thio)pyrido[2,3-b]pyrazin-2-yl)-4-(hydroxymethyl)piperidin-4-ol] | 5.40 |
| Nc1nccc(Sc2ccc3nc(N4C[C@H]5CC[C@@H](C4)[C@@H]5N)cnc3n2)c1Cl [Example 199, (1R,5S,8s)-3-(6-((2-amino-3-chloropyridin-4-yl)thio)pyrido[2,3-b]pyrazin-2-yl)-3-azabicyclo[3.2.1]octan-8-amine] | 6.46 |
| Nc1nccc(Sc2ccc3nc(N4CC5CCC(C4)N5)cnc3n2)c1Cl [Example 201, 4-((2-(3,8-diazabicyclo[3.2.1]octan-3-yl)pyrido[2,3-b]pyrazin-6-yl)thio)-3-chloropyridin-2-amine] | 6.89 |
| Nc1nccc(Sc2ccc3nc(N4CC5CCC4CNC5)cnc3n2)c1Cl (stereo not drawn) [Example 202, 4-((2-(3,6-diazabicyclo[3.2.2]nonan-6-yl)pyrido[2,3-b]pyrazin-6-yl)thio)-3-chloropyridin-2-amine] | 6.88 |
| Nc1nccc(Sc2ccc3nc(N4C[C@@H]5C[C@H]4CN5)cnc3n2)c1Cl [Example 203, 4-((2-((1S,4S)-2,5-diazabicyclo[2.2.1]heptan-2-yl)pyrido[2,3-b]pyrazin-6-yl)thio)-3-chloropyridin-2-amine] | 6.85 |
| Nc1nccc(Sc2ccc3nc(N4C5CCC4CNC5)cnc3n2)c1Cl [Example 204, 4-((2-(3,8-diazabicyclo[3.2.1]octan-8-yl)pyrido[2,3-b]pyrazin-6-yl)thio)-3-chloropyridin-2-amine] | 7.33 |
| Nc1nccc(Sc2ccc3nc(N4C5CNCC4C5)cnc3n2)c1Cl [Example 205] | 6.94 |
| Nc1nccc(Sc2ccc3nc(N4CC5CNCC(C4)O5)cnc3n2)c1Cl [Example 206, 4-((2-(9-oxa-3,7-diazabicyclo[3.3.1]nonan-3-yl)pyrido[2,3-b]pyrazin-6-yl)thio)-3-chloropyridin-2-amine] | 5.69 |
| Nc1nccc(Sc2ccc3nc(N4CC5COCC(C4)N5)cnc3n2)c1Cl [Example 207, 4-((2-(3-oxa-7,9-diazabicyclo[3.3.1]nonan-7-yl)pyrido[2,3-b]pyrazin-6-yl)thio)-3-chloropyridin-2-amine] | 6.14 |
| Nc1nccc(Sc2ccc3nc(N4C[C@@H]5CC[C@H]4CN5)cnc3n2)c1Cl [Example 208, 4-((2-((1S,4S)-2,5-diazabicyclo[2.2.2]octan-2-yl)pyrido[2,3-b]pyrazin-6-yl)thio)-3-chloropyridin-2-amine] | 7.17 |
| N[C@@H]1c2cccnc2CC12CCN(c1cnc3nc(Sc4ccnc(N5CCC(O)CC5)c4Cl)ccc3n1)CC2 [Example 209, (S)-1-(4-((2-(5-amino-5,7-dihydrospiro[cyclopenta[b]pyridine-6,4′-piperidin]-1′-yl)pyrido[2,3-b]pyrazin-6-yl)thio)-3-chloropyridin-2-yl)piperidin-4-ol] | 7.40 |
| NCC1(F)CCN(c2cnc3nc(Sc4ccnc(N)c4Cl)ccc3n2)CC1 [Example 211, 4-((2-(4-(aminomethyl)-4-fluoropiperidin-1-yl)pyrido[2,3-b]pyrazin-6-yl)thio)-3-chloropyridin-2-amine] | 7.27 |
| NCC1(F)CCN(c2cnc3nc(Sc4cccc(Cl)c4Cl)ccc3n2)CC1 [Example 212, (1-(6-((2,3-dichlorophenyl)thio)pyrido[2,3-b]pyrazin-2-yl)-4-fluoropiperidin-4-yl)methanamine] | 6.71 |
| Nc1nccc(Sc2ccc3nc(N4[C@@H]5CC[C@H]4[C@@H](N)C5)cnc3n2)c1Cl [Example 213, (1S,2S,4R)-7-(6-((2-amino-3-chloropyridin-4-yl)thio)pyrido[2,3-b]pyrazin-2-yl)-7-azabicyclo[2.2.1]heptan-2-amine] | 6.95 |
